Data published in patent US8859580B2 (Boehringer Ingelheim International GmbH, priority 2007, dated 2014).

Target: T1, 11β-HSD1 (Homo sapiens, UniProt P28845)
T1 construct: detecting cortisol generated from cortisterone by human liver microsomes; from tissue; host or cells: human liver microsomes
Assay: In vitro inhibition of 11β-HSD1, HTRF detection of cortisol generated from cortisone by human liver microsomes
Assay type: biochemical
Conditions: 11β-HSD IC50 (nM), 1 hour at 37° C., pH 6.0, NADPH 200 μM, cortisone 80 nM, inhibition relative to carbenoxolone signal
Outline: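 Inhibition expressed against the carbenoxolone signal and fitted to IC50 curves. Readout: HTRF competition between microsomal cortisol and XL665-labelled cortisol for Eu-cryptate anti-cortisol antibody (typically 2 h), with emission ratio 665/615 calibrated to cortisol concentration.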

T1 sequence (P28845 whole entry): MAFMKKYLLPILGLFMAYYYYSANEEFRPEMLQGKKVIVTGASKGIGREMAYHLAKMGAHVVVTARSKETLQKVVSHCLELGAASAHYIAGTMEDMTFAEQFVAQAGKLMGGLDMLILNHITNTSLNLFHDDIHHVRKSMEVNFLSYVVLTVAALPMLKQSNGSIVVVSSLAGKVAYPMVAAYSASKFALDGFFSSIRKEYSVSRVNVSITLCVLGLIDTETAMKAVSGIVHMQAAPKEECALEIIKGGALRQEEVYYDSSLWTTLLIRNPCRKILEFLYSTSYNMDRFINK

SMILES	IC50 [nM]
CC1(C)C(=O)Nc2ccc(C(=O)N3CC[C@@]4(C)c5ccccc5C[C@@H]3C4(C)C)cc21 [Example 308, 3,3-Dimethyl-5-[(2R,6S)-6,11,11-trimethyl-1,2,5,6-tetrahydro-4H-2,6-methano-benzo[d]azocine-3-carbonyl]-1,3-dihydro-indol-2-one]	210
CC12CCN(C(=O)c3ccc4[nH]cnc4c3)C(Cc3cccc(-c4cccnc4)c31)C2(C)C (stereo not shown) [Example 309, (1H-Benzoimidazol-5-yl)-(6,11,11-trimethyl-7-pyridin-3-yl-1,2,5,6-tetrahydro-4H-2,6-methano-benzo[d]azocin-3-yl)-methanone]	184
C[C@@H]1[C@H]2Cc3cc4nc(C5CC5)oc4cc3[C@]1(C)CCN2C(=O)c1ccc2nc[nH]c2c1 [Example 311, (3H-Benzoimidazol-5-yl)-[(6R,10R,12S)-2-cyclopropyl-5,6,7,8,9,10-hexahydro-10,12-dimethyl-6,10-methano-oxazolo[5,4-i][3]benzazocin-7-yl]-methanone]	424
CC(C)(C)c1nc2cc3c(cc2o1)C[C@H]1N(C(=O)c2ccc4nc[nH]c4c2)CC[C@]3(C)C1(C)C [Example 312, (3H-Benzoimidazol-5-yl)-[(6R,10S)-2-tert-butyl-5,6,7,8,9,10-hexahydro-10,12,12-trimethyl-6,10-methano-oxazolo[4,5-i][3]benzazocin-7-yl]-methanone]	103
Cc1cnc(-c2nc3cc4c(cc3o2)C[C@H]2N(C(=O)c3ccc5nc[nH]c5c3)CC[C@]4(C)C2(C)C)cn1 [Example 313, (3H-Benzoimidazol-5-yl)-[(6R,10S)-5,6,7,8,9,10-hexahydro-10,12,12-trimethyl-2-(5-methyl-pyrazin-2-yl)-6,10-methano-oxazolo[4,5-i][3]benzazocin-7-yl]-methanone]	61
CC(O)c1cccc(C(=O)N2CC[C@@]3(C)c4ccccc4C[C@@H]2C3(C)C)c1 (stereo partly drawn) [Example 314, [3-(1-Hydroxy-ethyl)-phenyl]-[(2R,6S)-6,11,11-trimethyl-1,2,5,6-tetrahydro-4H-2,6-methano-benzo[d]azocin-3-yl]-methanone]	162
Cc1ncc(-c2ccc3c(c2)[C@]2(C)CCN(C(=O)c4ccc5nc[nH]c5c4)[C@H](C3)[C@H]2C)cn1 [Example 315, (3H-Benzoimidazol-5-yl)-[(2R,6R,11S)-6,11-dimethyl-8-(2-methyl-pyrimidin-5-yl)-1,2,5,6-tetrahydro-4H-2,6-methano-benzo[d]azocin-3-yl]-methanone]	61
CC12CCN(C(=O)c3ccc4nc[nH]c4c3)C(Cc3cccc(C#N)c31)C2(C)C (stereo not shown) [Example 316, 3-(1H-Benzoimidazole-5-carbonyl)-6,11,11-trimethyl-1,2,3,4,5,6-hexahydro-2,6-methano-benzo[d]azocine-7-carbonitrile]	32
CC(C)(O)c1cccc(C(=O)N2CC[C@@]3(C)c4ccccc4C[C@@H]2C3(C)C)c1 [Example 317, [3-(1-Hydroxy-1-methyl-ethyl)-phenyl]-[(2R,6S)-6,11,11-trimethyl-1,2,5,6-tetrahydro-4H-2,6-methano-benzo[d]azocin-3-yl]-methanone]	217
CC1(C)[C@H]2Cc3ccccc3[C@]1(C)CCN2C(=O)c1ccc(O)cc1 [Example 318, (4-Hydroxy-phenyl)-[(2R,6S)-6,11,11-trimethyl-1,2,5,6-tetrahydro-4H-2,6-methano-benzo[d]azocin-3-yl]-methanone]	31
CC1(C)[C@H]2Cc3ccccc3[C@]1(C)CCN2C(=O)c1cccc(O)c1 [Example 319, (3-Hydroxy-phenyl)-[(2R,6S)-6,11,11-trimethyl-1,2,5,6-tetrahydro-4H-2,6-methano-benzo[d]azocin-3-yl]-methanone]	446
CC1(C)[C@H]2Cc3ccccc3[C@]1(C)CCN2C(=O)c1cc(Cl)c(O)c(Cl)c1 [Example 320, (3,5-Dichloro-4-hydroxy-phenyl)-[(2R,6S)-6,11,11-trimethyl-1,2,5,6-tetrahydro-4H-2,6-methano-benzo[d]azocin-3-yl]-methanone]	165
COc1c(F)cc(C(=O)N2CC[C@@]3(C)c4ccccc4C[C@@H]2C3(C)C)cc1F [Example 331, (3,5-Difluoro-4-methoxy-phenyl)-[(2R,6S)-6,11,11-trimethyl-1,2,5,6-tetrahydro-4H-2,6-methano-benzo[d]azocin-3-yl]-methanone]	439
Cc1nnc(-c2ccc3c(c2)[C@]2(C)CCN(C(=O)c4ccc5nc[nH]c5c4)[C@H](C3)[C@H]2C)o1 [Example 332, (3H-Benzoimidazol-5-yl)-[(2R,6R,11S)-6,11-dimethyl-8-(5-methyl-[1,3,4]oxadiazol-2-yl)-1,2,5,6-tetrahydro-4H-2,6-methano-benzo[d]azocin-3-yl]-methanone]	64
Cc1cnc(-c2nc3cc4c(cc3o2)[C@]2(C)CCN(C(=O)c3ccc5nc[nH]c5c3)[C@H](C4)[C@H]2C)cn1 [Example 333, (3H-Benzoimidazol-5-yl)-[(6R,10R,12S)-5,6,7,8,9,10-hexahydro-10,12-dimethyl-2-(5-methyl-pyrazin-2-yl)-6,10-methano-oxazolo[5,4-i][3]benzazocin-7-yl]-methanone]	84
C[C@@H]1[C@H]2Cc3ccc(-c4nnco4)cc3[C@]1(C)CCN2C(=O)c1ccc2nc[nH]c2c1 [Example 334, (3H-Benzoimidazol-5-yl)-[(2R,6R,11S)-6,11 dimethyl-8-[1,3,4]oxadiazol-2-yl-1,2,5,6-tetrahydro-4H-2,6-methano-benzo[d]azocin 3-yl]-methanone]	104
CC1(C)[C@H]2Cc3ccccc3[C@]1(C)CCN2C(=O)c1cc(F)c(O)c(F)c1 [Example 335, (3,5-Difluoro-4-hydroxy-phenyl)-[(2R,6S)-6,11,11-trimethyl-1,2,5,6-tetrahydro-4H-2,6-methano-benzo[d]azocin-3-yl]-methanone]	115
Cc1nnc(-c2ccc3c(c2)[C@]2(C)CCN(C(=O)c4ccc5nc[nH]c5c4)[C@H](C3)[C@H]2C)n1C [Example 336, (3H-Benzoimidazol-5-yl)-[(2R,6R,11S)-8-(4,5-dimethyl-4H-[1,2,4]triazol-3-yl)-6,11-dimethyl-1,2,5,6-tetrahydro-4H-2,6-methano-benzo[d]azocin-3-yl]-methanone]	198

Same assay, conditions: 1 hour at 37° C., pH 6.0, NADPH 200 μM, cortisone 80 nM, inhibition relative to carbenoxolone signal, read-out: 11β-HSD IC50

SMILES	IC50 [nM]
COc1ccc2c(c1)C1CCN(C(=O)c3ccc4nc[nH]c4c3)C1C2 (stereo not shown) [Example 321, (3H-Benzoimidazol-5-yl)-(5-methoxy-3,3a,8,8a-tetrahydro-2H-1-aza-cyclopenta[a]inden-1-yl)-methanone]	1170
CC12CC(Cc3ccccc31)N(C(=O)c1ccc3nc[nH]c3c1)C2 (stereo not shown) [Example 323, (3H-Benzoimidazol-5-yl)-(1-methyl-10-aza-tricyclo[7.2.1.0*2,7*]dodeca-2,4,6-trien-10-yl)-methanone]	620
CC12CCCN(C(=O)c3ccc4nc[nH]c4c3)C(Cc3ccccc31)C2 (stereo not shown) [Example 324, (3H-Benzoimidazol-5-yl)-(1-methyl-10-aza-tricyclo[7.4.1.0*2,7*]tetradeca-2,4,6-trien-10-yl)-methanone]	121
CC1C2c3ccc(O)cc3CC2N(C(=O)c2ccc3nc[nH]c3c2)CC1(C)C (stereo not shown) [Example 330, (3H-Benzoimidazol-5-yl)-(7-hydroxy-3,3,4-trimethyl-2,3,4,4a,9,9a-hexahydro-indeno[2,1-b]pyridin-1-yl)-methanone]	44
